From publication PMC5745756, “N,N-disubstituted azines attenuate LPS-mediated neuroinflammation in microglia and neuronal apoptosis via inhibiting MAPK signaling pathways” (BMC Neuroscience, 2017) come the findings set out here.

Like-named read-outs stand apart in the source and are kept apart here.

Format in all cases: cell-based, murine
For series [1], the system named is NO production in LPS-activated BV-2 cells. Put plainly: Nitrite (Griess) assay of NO production in LPS-activated BV-2 cells. The conditions noted are these: Mus musculus, read-out: IC50, concentration that caused 50% inhibition of NO production in LPS-activated BV-2 cells. Here is the method: (§1) […] or MTT assay was performed as described by our previous publication with slight modification. In order to measure MTT and NO production, BV-2 cells were plated into a 96-well plate at a density of 4 × 10^4 cells/well. […] Then, nitrite (a soluble oxidation product of NO) was detected in the culture media by using the Griess reaction. The supernatant (50 µL) was collected and mixed with an equal volume of Griess reagent (1% sulfanilamide in phosphoric acid and 0.1% N-1-napthylethylenediamine dihydrochloride). The absorbance was measured at 570 nm by using a microplate reader. Sodium nitrite was used to create a standard curve from which the NO2 concentration was calculated. The cell viability was evaluated by spectrophotometrically measuring the reduction of yellow 3-[4,5-dimethylthiazol-2-yl]-2,5-diphenyltetrazolium bromide (MTT) to purple formazan crystals. MTT was dissolved in DMEM, added to the culture plate containing cells at a final concentration of 0.5 mg/mL, and incubated for 1 h. The medium containing the MTT solution was carefully removed, and 200 µL DMSO was added to each well. After solubilizing the stained cells to produce a formazan-colored solution, the optical density (OD) was measured on a microplate reader at 570 nm, and the results were expressed as a percentage of the LPS-treated group. The same plate was used for the NO and MTT assays. The cell supernatant was used for the NO assay, and the plated cells were used for the MTT assay.
(§2) The NO production and cell viability of LPS-activated BV-2 cells were measured after treatment with azine derivatives using Griess reagent and MTT assay, respectively.

Series [2] can be described thus: MTT cell viability of LPS-activated BV-2 cells. Conditions: mouse, LPS-activated BV-2 microglial cells; 20 µM compound; percentage of the LPS-only treatment group; mean ± standard deviation, three experiments. As for the experimental part: as §1, §2
In another series the test system is BV-2 cells. The series is described as follows: MTT cell viability of LPS-activated BV-2 cells. Here is the method: as §1, §2
[3] abbreviates: BV-2, 100 ng/mL LPS, 24 h, Griess reaction.

One may read the viability as a read-out of living cells in per cent, often relative to untreated cells. With `COc1ccc(/C=C/C=NN=C/C=C/c2ccc(OC)cc2)cc1` [Compound 1, 1,2-Bis((E)-3-(4-methoxyphenyl)allylidene)hydrazine], the IC50 in series [1] (setting [3]) was found to be 58.5 µM. Moreover, in series [2], the viability at 24 h, 20 µM was 90.3 ± 9.37%.
Regarding `C/C(C=NN=C/C(C)=C/c1ccccc1)=C\c1ccccc1` [Compound 2, 1,2-Bis((E)-2-methyl-3-phenylallylidene)hydrazine], the IC50 in series [1] (setting [3]) was found to be 50.1 µM. In addition, the viability at 24 h, 20 µM in series [2] came to 96.6 ± 1.75%.
Turning to `C(=NN=Cc1cnc2ccccc2c1)c1cnc2ccccc2c1` [Compound 4, 1,2-Bis(quinolin-3-ylmethylene)hydrazine], the IC50 in series [1] (setting [3]) is > 500 µM. The compound also showed a viability at 24 h, 20 µM in series [2] of 91 ± 3.39%.
Regarding `O=[N+]([O-])c1ccccc1/C=C/C=NN=C/C=C/c1ccccc1[N+](=O)[O-]` [Compound 6, 1,2-Bis((E)-3-(2-nitrophenyl)allylidene)hydrazine], in series [1] (BV-2, 24 h), the IC50 amounted to 47.4 µM. This compound showed a viability at 24 h, 20 µM in series [2] of 87.9 ± 19.5%.
Turning to `Clc1ccc(/C=C/C=NN=C/C=C/c2ccc(Cl)cc2)cc1` [Compound 7, 1,2-Bis((E)-3-(4-chlorophenyl)allylidene)hydrazine], the IC50 in series [1] (setting [3]) was 39.9 µM. In addition, the “Toxicity in BV-2 cells (discussion)” value in the series with BV-2 cells is on record as “high toxicity”. For the same compound, the viability at 24 h, 20 µM in series [2] amounted to 77.2 ± 5.67%.
Regarding `C(C=C(c1ccccc1)c1ccccc1)=NN=CC=C(c1ccccc1)c1ccccc1` [Compound 8, 1,2-Bis(3,3-diphenylallylidene)hydrazine], in series [1] (setting [3]), the IC50 worked out at 47.9 µM. Also, in the series with BV-2 cells, the “Toxicity in BV-2 cells (discussion)” value is listed as “high toxicity”. The same compound registered a viability at 24 h, 20 µM in series [2] of 69.5 ± 3.25%.
With `C(=NN=Cc1ccc(N(c2ccccc2)c2ccccc2)cc1)c1ccc(N(c2ccccc2)c2ccccc2)cc1` [Compound 9, 4,4′-Hydrazine-1,2-diylidenebis(methan-1-yl-1-ylidene)bis(N,N-diphenylaniline)], in series [1] (setting [3]), the IC50 was 26.3 µM. Also, the viability at 24 h, 20 µM in series [2] came to 83.5 ± 7.78%.
On to `[H]/N=C(/NC)NCCC[C@H](N)C(=O)O` [L-NMMA, L-NG-monomethylarginine, reference compound], for which the IC50 in series [1] (setting [3]) was 18.3 µM. For the same compound, in series [2], the viability at 24 h, 20 µM amounted to 100 ± 3.41%.
